US7981893B2, “Heteroaryl compounds, compositions thereof, and methods of treatment therewith” (Signal Pharmaceuticals, LLC, priority 2006, dated 2011)

How the values were obtained:
PKCθ = target: T1, PKCθ (Homo sapiens, UniProt Q04759); test: PKCθ IMAP Assay; format: biochemical; details: IMAP fluorescence polarization screening assay, 35 μM ATP
T1 construct: purchased Invitrogen
Protocol: The following is an example of an assay that can be used to determine the PKCθ inhibitory activity of a test compound. Reagents are prepared as follows:
Assay Buffer: 50 mM HEPES (pH 7.6), 10 mM MgCl, 0.1 mM EDTA, 5 mM MBP, 0.01% Triton, 1 mM DTT, 0.05 mg/ml phosphatidyl serine, 0.05 mg/ml diacylglycerol.
The final concentration of PKCθ (Invitrogen) is 0.5 nM. The final concentration of substrate (FAM-AKRRRLSSLRA) (Molecular Devices) is 100 nM. The final concentration of ATP in the reaction is 35 μM. The final concentration of DMSO in the reaction is 2.5%.
Enzyme is kept in 5 μl aliquots and stored at −80° C. prior to use. Test compound is allowed to pre-incubate with enzyme for 45 minutes before the reactions is initiated.
The reaction mixture consists of: 5 μl of test compound in 10% DMSO, 5 μl of 400 nM substrate (FAM-AKRRRLSSLRA), 5 μl of […] PKCθ, and 5 μl of 140 μM ATP (ATP is added to the reaction mixture last to initiate the reaction) per well.
The reaction is allowed to proceed for 60 minutes and is terminated by adding 30 μl per well of 90% Progressive A buffer/10% Progressive B buffer and a 1:400 dilution of binding beeds (Molecular Devices).
The reaction is given a binding incubation time of at least 30 minutes prior to reading the fluorescence polarization signal on an Analyst reader (the following detector settings are used: fluorescein excitation-485 nm, fluorescein emission-530 nm, fluorescein dichroic-505 nm).

T1 sequence (Q04759 whole entry): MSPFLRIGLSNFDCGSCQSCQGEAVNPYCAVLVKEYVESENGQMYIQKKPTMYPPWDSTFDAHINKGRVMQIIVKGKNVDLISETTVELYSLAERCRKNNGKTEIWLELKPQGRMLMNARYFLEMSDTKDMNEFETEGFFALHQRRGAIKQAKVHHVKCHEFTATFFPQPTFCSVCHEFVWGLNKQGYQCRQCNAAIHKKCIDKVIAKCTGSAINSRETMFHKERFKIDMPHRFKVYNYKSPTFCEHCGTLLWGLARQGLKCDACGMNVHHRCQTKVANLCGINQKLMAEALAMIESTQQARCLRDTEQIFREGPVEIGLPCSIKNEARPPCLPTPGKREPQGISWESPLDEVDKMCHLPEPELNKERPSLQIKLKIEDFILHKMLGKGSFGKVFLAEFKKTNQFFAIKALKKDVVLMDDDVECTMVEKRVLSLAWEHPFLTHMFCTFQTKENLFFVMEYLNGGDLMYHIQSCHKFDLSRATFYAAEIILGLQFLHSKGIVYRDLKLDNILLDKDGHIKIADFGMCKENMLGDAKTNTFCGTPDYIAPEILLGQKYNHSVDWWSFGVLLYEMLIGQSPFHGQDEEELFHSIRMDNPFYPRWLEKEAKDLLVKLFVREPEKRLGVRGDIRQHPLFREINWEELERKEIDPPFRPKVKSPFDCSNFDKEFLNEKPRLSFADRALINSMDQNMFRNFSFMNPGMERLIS

Structure (SMILES) | IC50 (PKCθ) [µM] | melting point [°C]
COc1ccc(C(C)C)cc1-c1cnc2[nH]c(=O)n(C3CCCC3)c2n1 [Compound 31, 1-cyclopentyl-6-(5-isopropyl-2-methoxyphenyl)-1H-imidazo[4,5-b]pyrazin-2(3H)-one] | > 30 | –
CC(c1ccccc1)n1c(=O)[nH]c2ncc(-c3cccc4ncccc34)nc21 (stereo not drawn) [Compound 42, 1-(1-phenylethyl)-6-(quinolin-5-yl)-1H-imidazo[4,5-b]pyrazin-2(3H)-one] | 0.1 to 5 | –
COc1ccc(C(C)C)cc1-c1cnc2[nH]c(=O)n(CC3CCCCC3)c2n1 [Compound 35, 1-(cyclohexylmethyl)-6-(5-isopropyl-2-methoxyphenyl)-1H-imidazo[4,5-b]pyrazin-2(3H)-one] | > 30 | –
C[C@@H](c1ccccc1)n1c(=O)[nH]c2ncc(-c3cccc4ccccc34)nc21 [Compound 7, (S)-6-(naphthalen-1-yl)-1-(1-phenylethyl)-1H-imidazo[4,5-b]pyrazin-2(3H)-one] | > 30 | –
COc1ccc(C(C)C)cc1-c1cnc2[nH]c(=O)n(CC3CCCC3)c2n1 [Compound 34, 1-(cyclopentylmethyl)-6-(5-isopropyl-2-methoxyphenyl)-1H-imidazo[4,5-b]pyrazin-2(3H)-one] | > 30 | –
C[C@H](c1ccccc1)n1c(=O)[nH]c2nccnc21 [Compound 16, (R)-1-(1-phenylethyl)-1H-imidazo[4,5-b]pyrazin-2(3H)-one] | > 30 | –
CC(c1ccccn1)n1c(=O)[nH]c2ncc(-c3cccc4ncccc34)nc21 (stereo not drawn) [Compound 75, 1-(1-(pyridin-2-yl)ethyl)-6-(quinolin-5-yl)-1H-imidazo[4,5-b]pyrazin-2(3H)-one] | 10.1 to 20 | –
CC(c1ccccc1)n1c(=O)[nH]c2ncc(-c3ccc(C(F)(F)F)cc3)nc21 (stereo not drawn) [Compound 83, 1-(1-phenylethyl)-6-(4-(trifluoromethyl)phenyl)-1H-imidazo[4,5-b]pyrazin-2(3H)-one] | > 30 | –
COc1ccc(C(C)C)cc1-c1cnc2[nH]c(=O)n(CC(C)(C)C)c2n1 [Compound 36, 6-(5-isopropyl-2-methoxyphenyl)-1-neopentyl-1H-imidazo[4,5-b]pyrazin-2(3H)-one] | > 30 | –
CC(c1cccnc1)n1c(=O)[nH]c2ncc(-c3cccc4ncccc34)nc21 (stereo not drawn) [Compound 76, 1-(1-(pyridin-3-yl)ethyl)-6-(quinolin-5-yl)-1H-imidazo[4,5-b]pyrazin-2(3H)-one] | 5.1 to 10 | –
COc1ccc(C(C)C)cc1-c1cnc2[nH]c(=O)n(C3CCCOC3)c2n1 (stereo not drawn) [Compound 46, 6-(5-isopropyl-2-methoxyphenyl)-1-(tetrahydro-2H-pyran-3-yl)-1H-imidazo[4,5-b]pyrazin-2(3H)-one] | 10.1 to 20 | –
CC(C)(O)c1ccc(-c2cnc3[nH]c(=O)n(CC4CCOCC4)c3n2)cc1 [Compound 145, 6-(4-(2-Hydroxypropan-2-yl)phenyl)-1-((tetrahydro-2H-pyran-4-yl)methyl)-1H-imidazo[4,5-b]pyrazin-2(3H)-one] | – | 212 to 214
O=c1[nH]c2ncc(-c3ccc4[nH]ccc4c3)nc2n1CC1CCOCC1 [Compound 146, 6-(1H-Indol-5-yl)-1-((tetrahydro-2H-pyran-4-yl)methyl)-1H-imidazo[4,5-b]pyrazin-2(3H)-one] | – | 305 to 308
Cc1cc(C(=O)O)ccc1-c1cnc2[nH]c(=O)n(CC3CCCCC3)c2n1 [Compound 141, 4-(3-(Cyclohexylmethyl)-2-oxo-2,3-dihydro-1H-imidazo[4,5-b]pyrazin-5-yl)-3-methyl benzoic acid] | – | 244 to 247
O=c1[nH]c2ncc(-c3cccnc3)nc2n1CC1CCCCC1 [Compound 101, 1-(Cyclohexylmethyl)-6-(pyridin-3-yl)-1H-imidazo[4,5-b]pyrazin-2(3H)-one] | – | 205

Now from value to compound:

IC50 (PKCθ) [µM] | melting point [°C] | Structure (SMILES)
> 30 | – | CC(c1ccccc1)n1c(=O)[nH]c2ncc(-c3ccc(NS(C)(=O)=O)cc3)nc21 (stereo not drawn) [Compound 78, N-(4-(2-oxo-3-(1-phenylethyl)-2,3-dihydro-1H-imidazo[4,5-b]pyrazin-5-yl)phenyl)methanesulfonamide]
> 30 | – | COc1ccc(C(C)C)cc1-c1ccc2[nH]c(=O)n([C@H](CO)C(C)C)c2n1 [Compound 39, (S)-3-(1-hydroxy-3-methylbutan-2-yl)-5-(5-isopropyl-2-methoxyphenyl)-1H-imidazo[4,5-b]pyridin-2(3H)-one]
> 30 | – | COc1ccc(C(C)C)cc1-c1cnc2[nH]c(=O)n(C3CCOCC3)c2n1 [Compound 23, 6-(5-isopropyl-2-methoxyphenyl)-1-(tetrahydro-2H-pyran-4-yl)-1H-imidazo[4,5-b]pyrazin-2(3H)-one]
20.1 to 30 | – | O=c1[nH]c2ncc(-c3cccc4ncccc34)nc2n1C1CCC(CO)CC1 (stereo not drawn) [Compound 77, 1-((1s,4s)-4-(hydroxymethyl)cyclohexyl)-6-(quinolin-5-yl)-1H-imidazo[4,5-b]pyrazin-2(3H)-one]
> 30 | – | C[C@H](c1ccccc1)n1c(=O)n(C)c2ncc(-c3cccc4ncccc34)nc21 [Compound 48, (R)-1-methyl-3-(1-phenylethyl)-5-(quinolin-5-yl)-1H-imidazo[4,5-b]pyrazin-2(3H)-one]
10.1 to 20 | – | COc1ccc(C(C)C)cc1-c1cnc2[nH]c(=O)n([C@@H]3CCOC3)c2n1 [Compound 32, (R)-6-(5-isopropyl-2-methoxyphenyl)-1-(tetrahydrofuran-3-yl)-1H-imidazo[4,5-b]pyrazin-2(3H)-one]
> 30 | – | C[C@H](c1ccccc1)n1c(=O)[nH]c2ncc(-c3cccc4ncccc34)cc21 [Compound 62, (R)-1-(1-phenylethyl)-6-(quinolin-5-yl)-1H-imidazo[4,5-b]pyridin-2(3H)-one]
> 30 | – | CC(C)[C@H](CO)n1c(=O)[nH]c2ncc(-c3ccccc3)nc21 [Compound 9, (R)-1-(1-hydroxy-3-methylbutan-2-yl)-6-phenyl-1H-imidazo[4,5-b]pyrazin-2(3H)-one]
5.1 to 10 | – | COc1ccc(C(C)C)cc1-c1cnc2[nH]c(=O)n(C(C)C)c2n1 [Compound 18, 1-isopropyl-6-(5-isopropyl-2-methoxyphenyl)-1H-imidazo[4,5-b]pyrazin-2(3H)-one]
> 30 | – | C[C@@H](c1ccccc1)n1c(=O)n(C)c2ncc(-c3cccc4ncccc34)nc21 [Compound 49, (S)-1-methyl-3-(1-phenylethyl)-5-(quinolin-5-yl)-1H-imidazo[4,5-b]pyrazin-2(3H)-one]
> 30 | – | O=c1[nH]c2ncc(-c3cccc4ncccc34)nc2[nH]1 [Compound 20, 5-(quinolin-5-yl)-1H-imidazo[4,5-b]pyrazin-2(3H)-one]
> 30 | – | CC(c1ccccc1)n1c(=O)[nH]c2ncc(-c3cccc4ncccc34)cc21 (stereo not drawn) [Compound 63, 1-(1-phenylethyl)-6-(quinolin-5-yl)-1H-imidazo[4,5-b]pyridin-2(3H)-one]
> 30 | – | COc1ccc(C(C)C)cc1-c1cnc2[nH]c(=O)n(CC3CC3)c2n1 [Compound 33, 1-(cyclopropylmethyl)-6-(5-isopropyl-2-methoxyphenyl)-1H-imidazo[4,5-b]pyrazin-2(3H)-one]
> 30 | – | O=c1[nH]c2ncc(-c3cccc4ncccc34)nc2n1CC1CCNCC1 [Compound 74, 1-(piperidin-4-ylmethyl)-6-(quinolin-5-yl)-1H-imidazo[4,5-b]pyrazin-2(3H)-one]
– | > 250 | COCCNc1ncc(-c2cnc3[nH]c(=O)n(CC4CCCCC4)c3n2)cn1 [Compound 212, 1-(Cyclohexylmethyl)-6-(2-(2-methoxyethylamino)pyrimidin-5-yl)-1H-imidazo[4,5-b]pyrazin-2(3H)-one]
– | 178 to 180 | Cl.O=c1[nH]c2ncc(-c3ccc(O)cc3)nc2n1CC1CCCN1 (stereo not drawn)
– | 311 to 313 | O=c1[nH]c2ncc(-c3ccc4[nH]ncc4c3)nc2n1CC1CCCCC1 [Compound 130, 1-(Cyclohexylmethyl)-6-(1H-indazol-5-yl)-1H-imidazo[4,5-b]pyrazin-2(3H)-one]
– | 318 to 320 | O=c1[nH]c2ncc(-c3ccc(O)cc3)nc2n1C1CCCCC1 [Compound 95, 1-Cyclohexyl-6-(4-hydroxyphenyl)-1H-imidazo[4,5-b]pyrazin-2(3H)-one]
– | 305 to 307 | O=c1[nH]c2ncc(-c3ccc(-c4cn[nH]c4)cc3)nc2n1CC1CCCCC1 [Compound 161, 6-(4-(1H-Pyrazol-4-yl)phenyl)-1-(cyclohexylmethyl)-1H-imidazo[4,5-b]pyrazin-2(3H)-one]
– | 249 to 253 | CC(C)(O)c1nc(-c2ccc(-c3cnc4[nH]c(=O)n(CC5CCOCC5)c4n3)cc2)n[nH]1 [Compound 185, 6-(4-(5-(2-Hydroxypropan-2-yl)-1H-1,2,4-triazol-3-yl)phenyl)-1-((tetrahydro-2H-pyran-4-yl)methyl)-1H-imidazo[4,5-b]pyrazin-2(3H)-one]
– | 276 to 277 | O=c1[nH]c2ncc(-c3ccc(O)cc3)nc2n1CCC1CCOCC1 [Compound 120, 6-(4-Hydroxyphenyl)-1-(2-(tetrahydro-2H-pyran-4-yl)ethyl)-1H-imidazo[4,5-b]pyrazin-2(3H)-one]
